Source: patent US3956287A, “7-[(2-Oxo-1-pyridinyl)acylamino]cephalosporin derivatives” (Richardson-Merrell Inc., priority 1973, dated 1976)
Values after ≈ are worked out from the molar mass of the structure shown. Counter-ions that a name gives are not always drawn. Like-named read-outs stand apart in the source and are kept apart here.

What was measured:
[1] = test system: (Penicillinase Producing) Staphylococcus aureus; test: in vitro antibacterial activity, minimal inhibiting concentration, penicillinase producing Staphylococcus aureus; format: cell-based; settings: read-out: Minimal inhibiting concentration, (Penicillinase Producing) Staphylococcus aureus
Experimental: (§1) Specific nutrient agar plates are completely innoculated with the various test organisms. Filter paper discs are placed on the surface of the agar and wetted with 0.1 ml of a solution containing 10, 100 and 1,000 micrograms of the test compound. Zones of inhibition of microbial growth are used to indicate the antibacterial activity of the test compound against the various test organisms employed.
(§2) The following table summarizes the in vitro activity in terms of a concentration required to inhibit the growth of various typical bacteria for the following representative compounds: 6-[2-(2-oxo-1-pyridinyl)acetylamino]penicillanic acid, sodium salt (1), 7-[2-(2-oxo-1-pyridinyl)acetylamino]desacetoxycephalosporanic acid, sodium salt (2), 6-[2-(6-methyl-2-oxo-1-pyridinyl)acetylamino]pencillanic acid (3), 6-[2-(2-oxo-1-pyridinyl)-2-methylacetylamino]penicillanic acid (4), 6-[2-(5-chloro-2-oxo-1-pyridinyl)acetylamino]penicillanic acid (5), 6-[2-(5-nitro-2-oxo-1-pyridinyl)acetylamino]penicillanic acid (6), 6-[ 2-(5-amino-2-oxo-1-pyridinyl)acetylamino]penicillanic acid (7), 6-[2-(3-methoxy-2-oxo-1-pyridinyl)acetylamino]penicillanic acid (8), and 7-[2-(2-oxo-1-pyridinyl)acetylamino]cephalosporanic acid (9).

Streptococcus pyogenes = test: in vitro antibacterial activity, minimal inhibiting concentration, Streptococcus pyogenes; format: cell-based; settings: read-out: Minimal inhibiting concentration, Streptococcus pyogenes
Experimental: as §1, §2

Staphylococcus aureus = test: in vitro antibacterial activity, minimal inhibiting concentration, Staphylococcus aureus; format: cell-based; settings: read-out: Minimal inhibiting concentration, Staphylococcus aureus
Experimental: as §1, §2

Acid Resistance = format: physicochemical
[2] = test system: Salmonella schottmuelleri; test: in vitro antibacterial activity, minimal inhibiting concentration, Salmonella schottmuelleri; format: cell-based; settings: read-out: Minimal inhibiting concentration, Salmonella schottmuelleri
Experimental: as §1, §2

[3] = penicillinase producing strain, in vitro, filter paper discs on nutrient agar, 0.1 ml of solution containing 10, 100 and 1,000 micrograms
[4] = in vitro, filter paper discs on nutrient agar, 0.1 ml of solution containing 10, 100 and 1,000 micrograms

CC1(C)S[C@@H]2C(NC(=O)Cn3ccccc3=O)C(=O)N2[C@H]1C(=O)[O-].[Na+] (some centres unmarked) [Compound 1, 6-[2-(2-oxo-1-pyridinyl)acetylamino]penicillanic acid, sodium salt]
MIC [1]: 1000 µg/mL
MIC (Streptococcus pyogenes): 10 µg/mL
MIC (Staphylococcus aureus): 10 µg/mL
Acid Resistance (Acid Resistance): Yes
MIC [2]: 1000 µg/mL

CC1=C(C(=O)O)N2C(=O)C(NC(=O)Cn3ccccc3=O)C2SC1 (centres unmarked) [Compound 2, 7-[2-(2-oxo-1-pyridinyl)acetylamino]desacetoxycephalosporanic acid, sodium salt]
MIC [1, 3]: > 1000 µg/mL
MIC (Streptococcus pyogenes; [4]): 1000 µg/mL
MIC (Staphylococcus aureus; [4]): 1000 µg/mL
Acid Resistance (Acid Resistance): Yes
MIC [2, 4]: > 1000 µg/mL

Cc1cccc(=O)n1CC(=O)NC1C(=O)N2C1SC(C)(C)C2C(=O)O (centres unmarked) [Compound 3, 6-[2-(6-methyl-2-oxo-1-pyridinyl)acetylamino]pencillanic acid]
MIC [1, 3]: 1000 µg/mL (≈ 2740 µM)
MIC (Streptococcus pyogenes; [4]): 1000 µg/mL (≈ 2740 µM)
MIC (Staphylococcus aureus; [4]): 10 µg/mL (≈ 27.4 µM)
Acid Resistance (Acid Resistance): Yes
MIC [2, 4]: 1000 µg/mL (≈ 2740 µM)

CC(C(=O)NC1C(=O)N2[C@@H]1SC(C)(C)[C@@H]2C(=O)O)n1ccccc1=O (some centres unmarked) [Compound 4, 6-[2-(2-oxo-1-pyridinyl)-2-methylacetylamino]penicillanic acid]
MIC [1, 3]: 1000 µg/mL (≈ 2740 µM)
MIC (Streptococcus pyogenes; [4]): 1000 µg/mL (≈ 2740 µM)
MIC (Staphylococcus aureus; [4]): 1000 µg/mL (≈ 2740 µM)
Acid Resistance (Acid Resistance): Weak
MIC [2, 4]: 1000 µg/mL (≈ 2740 µM)

CC1(C)S[C@@H]2C(NC(=O)Cn3cc(Cl)ccc3=O)C(=O)N2[C@H]1C(=O)O (some centres unmarked) [Compound 5, 6-[2-(5-chloro-2-oxo-1-pyridinyl)acetylamino]penicillanic acid]
MIC [1, 3]: > 1000 µg/mL
MIC (Streptococcus pyogenes; [4]): 1000 µg/mL (≈ 2590 µM)
MIC (Staphylococcus aureus; [4]): 10 µg/mL (≈ 25.9 µM)
Acid Resistance (Acid Resistance): Yes
MIC [2, 4]: 1000 µg/mL (≈ 2590 µM)

CC1(C)S[C@@H]2C(NC(=O)Cn3cc([N+](=O)[O-])ccc3=O)C(=O)N2[C@H]1C(=O)O (some centres unmarked) [Compound 6, 6-[2-(5-nitro-2-oxo-1-pyridinyl)acetylamino]penicillanic acid]
MIC [1, 3]: > 1000 µg/mL
MIC (Streptococcus pyogenes; [4]): > 1000 µg/mL
MIC (Staphylococcus aureus; [4]): 10 µg/mL (≈ 25.2 µM)
Acid Resistance (Acid Resistance): Yes
MIC [2, 4]: 1000 µg/mL (≈ 2520 µM)

CC1(C)S[C@@H]2C(NC(=O)Cn3cc(N)ccc3=O)C(=O)N2[C@H]1C(=O)O (some centres unmarked) [Compound 7, 6-[2-(5-amino-2-oxo-1-pyridinyl)acetylamino]penicillanic acid]
MIC [1, 3]: > 1000 µg/mL
MIC (Streptococcus pyogenes; [4]): > 1000 µg/mL
MIC (Staphylococcus aureus; [4]): 10 µg/mL (≈ 27.3 µM)
Acid Resistance (Acid Resistance): Yes
MIC [2, 4]: 1000 µg/mL (≈ 2730 µM)

COc1cccn(CC(=O)NC2C(=O)N3[C@@H]2SC(C)(C)[C@@H]3C(=O)O)c1=O (some centres unmarked) [Compound 8, 6-[2-(3-methoxy-2-oxo-1-pyridinyl)acetylamino]penicillanic acid]
MIC [1, 3]: 1000 µg/mL (≈ 2620 µM)
MIC (Staphylococcus aureus; [4]): 10 µg/mL (≈ 26.2 µM)
Acid Resistance (Acid Resistance): Yes
MIC [2, 4]: 1000 µg/mL (≈ 2620 µM)

CC(=O)OCC1=C(C(=O)O)N2C(=O)C(NC(=O)Cn3ccccc3=O)C2SC1 (centres unmarked) [Compound 9, 7-[2-(2-oxo-1-pyridinyl)acetylamino]cephalosporanic acid]
MIC [1, 3]: 1000 µg/mL (≈ 2450 µM)
MIC (Streptococcus pyogenes; [4]): 10 µg/mL (≈ 24.5 µM)
MIC (Staphylococcus aureus; [4]): 10 µg/mL (≈ 24.5 µM)
Acid Resistance (Acid Resistance): Yes
MIC [2, 4]: 100 µg/mL (≈ 245 µM)
